Reference: patent US20250206757A1 (GASHERBRUM BIO, INC., priority 2022, published 2025)

Each compound was assayed against GLP-1 Receptor (Homo sapiens, UniProt P43220) (assay: GLP-1R agonist cAMP stimulation assay (HEK293/GLP1R/CRE-LUC cells, HTRF cAMP dynamic 2 kit)). Conditions: HEK293/CRE-Luc cell line stably expressing the GLP-1 Receptor; 30 min incubation at 37° C.
Assay type: cell-based
Method in brief: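 HEK293 cells stably expressing GLP-1R with CRE-Luc, 1000 cells/well in DPBS with 0.5 mM IBMX and 0.10% BSA, exposed to half-log compound dilutions for 30 min at 37 °C. cAMP measured by HTRF (665/615 nm) after 1 h at room temperature.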

GLP-1 Receptor, sequence (P43220 24-463): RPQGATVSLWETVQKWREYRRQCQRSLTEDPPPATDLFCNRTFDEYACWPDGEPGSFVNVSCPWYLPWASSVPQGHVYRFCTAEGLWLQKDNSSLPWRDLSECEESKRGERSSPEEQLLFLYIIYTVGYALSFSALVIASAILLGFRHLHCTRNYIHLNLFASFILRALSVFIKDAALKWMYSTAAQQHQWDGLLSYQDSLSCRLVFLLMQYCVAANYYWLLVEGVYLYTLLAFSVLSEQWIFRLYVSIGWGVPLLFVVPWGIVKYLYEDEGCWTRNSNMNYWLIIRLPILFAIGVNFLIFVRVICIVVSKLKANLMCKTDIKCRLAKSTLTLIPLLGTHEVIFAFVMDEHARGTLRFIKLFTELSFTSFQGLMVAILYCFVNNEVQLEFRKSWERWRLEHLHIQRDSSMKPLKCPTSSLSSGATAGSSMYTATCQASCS

SMILES | EC50 [nM]
CNC(=O)c1nnc(-c2cc3nc(CN4CCc5cc(C(F)(F)F)c(OCc6ccc(Cl)cc6F)nc5C4)n(C[C@@H]4CCO4)c3cn2)[nH]1 [Compound 94, 5-[2-({2-[(4-chloro-2-fluorophenyl)methoxy]-3-(trifluoromethyl)-5,6,7,8-tetrahydro-1,7-naphthyridin-7-yl}methyl)-3-{[(2S)-oxetan-2-yl]methyl}-3H-imidazo[4,5-c]pyridin-6-yl]-N-methyl-4H-1,2,4-triazole-3-carboxamide] | < 1
O=c1[nH]c(-c2ccc3c(nc(CN4CCc5cc(C(F)(F)F)c(OCc6c(F)cc(Cl)cc6F)nc5C4)n3C[C@@H]3CCO3)c2F)no1 [Compound 48, 3-[2-({2-[(4-chloro-2,6-difluorophenyl)methoxy]-3-(trifluoromethyl)-5,6,7,8-tetrahydro-1,7-naphthyridin-7-yl}methyl)-4-fluoro-1-{[(2S)-oxetan-2-yl]methyl}-1H-1,3-benzodiazol-5-yl]-4,5-dihydro-1,2,4-oxadiazol-5-one] | 1 to 300
Fc1cc(Cl)ccc1CNc1nc2c(cc1C(F)(F)F)CCN(Cc1nc3cc(-c4nnc(C(F)(F)F)[nH]4)ncc3n1C[C@@H]1CCO1)C2 [Compound 109, N-[(4-chloro-2-fluorophenyl)methyl]-7-[(3-{1[(2S)-oxetan-2-yl]methyl}-6-[5-(trifluoromethyl)-4H-1,2,4-triazol-3-yl]-3H-imidazo[4,5-c]pyridin-2-yl)methyl]-3-(trifluoromethyl)-5,6,7,8-tetrahydro-1,7-naphthyridin-2-amine] | < 1
O=C(O)c1ccc2c(n1)nc(CN1CCc3cc(C(F)(F)F)c(OCc4ccc(Cl)cc4F)nc3C1)n2C[C@@H]1CCO1 [Compound 25, 2-({2-[(4-chloro-2-fluorophenyl)methoxy]-3-(trifluoromethyl)-5,6,7,8-tetrahydro-1,7-naphthyridin-7-yl}methyl)-1-{[(2S)-oxetan-2-yl]methyl}-1H-imidazo[4,5-b]pyridine-5-carboxylic acid] | 1 to 300
O=c1[nH]c(-c2cc3c(nc(CN4CCc5cc(C(F)(F)F)c(OCc6ccc(Cl)cc6F)nc5C4)n3C[C@@H]3CCO3)s2)no1 [Compound 58, 3-[2-({2-[(4-chloro-2-fluorophenyl)methoxy]-3-(trifluoromethyl)-5,6,7,8-tetrahydro-1,7-naphthyridin-7-yl}methyl)-1-{[(2S)-oxetan-2-yl]methyl}-1H-thieno[2,3-d]imidazol-5-yl]-4,5-dihydro-1,2,4-oxadiazol-5-one] | < 1
Fc1cc(Cl)ccc1COc1nc2c(cc1C(F)(F)F)CCN(Cc1nc3cc(-c4nnc(C(F)(F)F)[nH]4)ncc3n1C[C@H]1CCCO1)C2 [Compound 78, 2-[(4-chloro-2-fluorophenyl)methoxy]-7-[(3-{1[(2R)-oxolan-2-yl]methyl}-6-[5-(trifluoromethyl)-4H-1,2,4-triazol-3-yl]-3H-imidazo[4,5-c]pyridin-2-yl)methyl]-3-(trifluoromethyl)-5,6,7,8-tetrahydro-1,7-naphthyridine] | 1 to 300
O=C(O)c1ccc2c(nc(CN3CCc4cc(C(F)(F)F)c(OCc5ccc(Cl)cc5F)nc4C3)n2C[C@@H]2CCO2)c1F [Compound 27, 2-({2-[(4-chloro-2-fluorophenyl)methoxy]-3-(trifluoromethyl)-5,6,7,8-tetrahydro-1,7-naphthyridin-7-yl}methyl)-4-fluoro-1-{[(2S)-oxetan-2-yl]methyl}-1H-1,3-benzodiazole-5-carboxylic acid] | 1 to 300
Cc1cc(-c2nnc(C(F)(F)F)[nH]2)nnc1CN1CCc2cc(C(F)(F)F)c(OCc3ccc(Cl)cc3F)nc2C1 [Compound 13, 2-[(4-chloro-2-fluorophenyl)methoxy]-7-({4-methyl-6-[5-(trifluoromethyl)-4H-1,2,4-triazol-3-yl]pyridazin-3-yl}methyl)-3-(trifluoromethyl)-5,6,7,8-tetrahydro-1,7-naphthyridine] | > 300
O=c1[nH]c(-c2ccc3c(nc(CN4CCc5cc(C(F)(F)F)c(NCc6ccc(Cl)cc6F)nc5C4)n3C[C@@H]3CCO3)c2F)no1 [Compound 106, 3-{2-[(2-{[(4-chloro-2-fluorophenyl)methyl]amino}-3-(trifluoromethyl)-5,6,7,8-tetrahydro-1,7-naphthyridin-7-yl)methyl]-4-fluoro-1-{[(2S)-oxetan-2-yl]methyl}-1H-1,3-benzodiazol-5-yl}-4,5-dihydro-1,2,4-oxadiazol-5-one] | < 1
N#Cc1nnc(-c2cc3nc(CN4CCc5cc(C(F)(F)F)c(OCc6ccc(Cl)cc6F)nc5C4)n(C[C@@H]4CCO4)c3nn2)[nH]1 [Compound 42, 5-[6-({2-[(4-chloro-2-fluorophenyl)methoxy]-3-(trifluoromethyl)-5,6,7,8-tetrahydro-1,7-naphthyridin-7-yl}methyl)-7-{1[(2S)-oxetan-2-yl]methyl}-7H-imidazo[4,5-c]pyridazin-3-yl]-4H-1,2,4-triazole-3-carbonitrile] | < 1
Cc1cc2c(nc1OCc1c(F)cc(Cl)cc1F)CN(Cc1nc3cc(-c4nnc(C(F)(F)F)[nH]4)cnc3n1C[C@@H]1CCO1)CC2 [Compound 51, 2-[(4-chloro-2,6-difluorophenyl)methoxy]-3-methyl-7-[(3-{1[(2S)-oxetan-2-yl]methyl}-6-[5-(trifluoromethyl)-4H-1,2,4-triazol-3-yl]-3H-imidazo[4,5-b]pyridin-2-yl)methyl]-5,6,7,8-tetrahydro-1,7-naphthyridine] | < 1
Fc1cc(Cl)cc(F)c1CNc1nc2c(cc1C(F)(F)F)CCN(Cc1nc3cc(-c4nnc(C5CC5)[nH]4)ncc3n1C[C@@H]1CCO1)C2 [Compound 110, N-[(4-chloro-2,6-difluorophenyl)methyl]-7-{[6-(5-cyclopropyl-4H-1,2,4-triazol-3-yl)-3-{[(2S)-oxetan-2-yl]methyl}-3H-imidazo[4,5-c]pyridin-2-yl]methyl}-3-(trifluoromethyl)-5,6,7,8-tetrahydro-1,7-naphthyridin-2-amine] | < 1
CS(=O)(=O)c1nnc(-c2ccc3c(c2)nc(CN2CCc4cc(C(F)(F)F)c(OCc5ccc(Cl)cc5F)nc4C2)n3C[C@@H]2CCO2)[nH]1 [Compound 87, 2-[(4-chloro-2-fluorophenyl)methoxy]-7-{[5-(5-methanesulfonyl-4H-1,2,4-triazol-3-yl)-1-{[(2S)-oxetan-2-yl]methyl}-1H-1,3-benzodiazol-2-yl]methyl}-3-(trifluoromethyl)-5,6,7,8-tetrahydro-1,7-naphthyridine] | 1 to 300
Cc1cc2c(nc1OCc1c(F)cc(Cl)cc1F)CN(Cc1nc3cc(-c4nnc(C#N)[nH]4)cnc3n1C[C@@H]1CCO1)CC2 [Compound 41, 5-[2-({2-[(4-chloro-2,6-difluorophenyl)methoxy]-3-methyl-5,6,7,8-tetrahydro-1,7-naphthyridin-7-yl}methyl)-3-{1[(2S)-oxetan-2-yl]methyl}-3H-imidazo[4,5-b]pyridin-6-yl]-4H-1,2,4-triazole-3-carbonitrile] | < 1
Fc1cc(Cl)cc(F)c1COc1nc2c(cc1C(F)(F)F)CCN(Cc1nc3cc(-c4nnc(C(F)(F)F)[nH]4)nnc3n1C[C@@H]1CCO1)C2 [Compound 39, 2-[(4-chloro-2,6-difluorophenyl)methoxy]-7-[(7-{[(2S)-oxetan-2-yl]methyl}-3-[5-(trifluoromethyl)-4H-1,2,4-triazol-3-yl]-7H-imidazo[4,5-c]pyridazin-6-yl)methyl]-3-(trifluoromethyl)-5,6,7,8-tetrahydro-1,7-naphthyridine] | < 1
O=c1[nH]c(-c2cc3nc(CN4CCc5cc(C(F)(F)F)c(OCc6c(F)cc(Cl)cc6F)nc5C4)n(C[C@@H]4CCO4)c3cn2)no1 [Compound 32, 3-[2-({2-[(4-chloro-2,6-difluorophenyl)methoxy]-3-(trifluoromethyl)-5,6,7,8-tetrahydro-1,7-naphthyridin-7-yl}methyl)-3-{1[(2S)-oxetan-2-yl]methyl}-3H-imidazo[4,5-c]pyridin-6-yl]-4,5-dihydro-1,2,4-oxadiazol-5-one] | < 1
Cc1nnc(-c2cc3nc(CN4CCc5cc(C(F)(F)F)c(OCc6ccc(Cl)cc6F)nc5C4)n(C[C@@H]4CCO4)c3cn2)[nH]1 [Compound 62, 2-[(4-chloro-2-fluorophenyl)methoxy]-7-{[6-(5-methyl-4H-1,2,4-triazol-3-yl)-3-{[(2S)-oxetan-2-yl]methyl}-3H-imidazo[4,5-c]pyridin-2-yl]methyl}-3-(trifluoromethyl)-5,6,7,8-tetrahydro-1,7-naphthyridine] | < 1
Fc1cc(Cl)ccc1COc1nc2c(cc1C(F)(F)F)CCN(Cc1nc3cc(-c4nnc(S)[nH]4)ccc3n1C[C@@H]1CCO1)C2 [Compound 85, 5-[2-({2-[(4-chloro-2-fluorophenyl)methoxy]-3-(trifluoromethyl)-5,6,7,8-tetrahydro-1,7-naphthyridin-7-yl}methyl)-1-{[(2S)-oxetan-2-yl]methyl}-1H-1,3-benzodiazol-5-yl]-4H-1,2,4-triazole-3-thiol] | < 1
O=C(Nc1cc2nc(CN3CCc4cc(C(F)(F)F)c(OCc5ccc(Cl)cc5F)nc4C3)n(C[C@@H]3CCO3)c2cn1)c1cccnc1 [Compound 103, N-[2-({2-[(4-chloro-2-fluorophenyl)methoxy]-3-(trifluoromethyl)-5,6,7,8-tetrahydro-1,7-naphthyridin-7-yl}methyl)-3-{[(2S)-oxetan-2-yl]methyl}-3H-imidazo[4,5-c]pyridin-6-yl]pyridine-3-carboxamide] | < 1
Cc1nnc(-c2cc3nc(CN4CCc5cc(C(F)(F)F)c(OCc6c(F)cc(Cl)cc6F)nc5C4)n(C[C@@H]4CCO4)c3cn2)[nH]1 [Compound 63, 2-[(4-chloro-2,6-difluorophenyl)methoxy]-7-{[6-(5-methyl-4H-1,2,4-triazol-3-yl)-3-{[(2S)-oxetan-2-yl]methyl}-3H-imidazo[4,5-c]pyridin-2-yl]methyl}-3-(trifluoromethyl)-5,6,7,8-tetrahydro-1,7-naphthyridine] | < 1
